# Laboratory results: patent US9511136B2, “Immunogenic compounds comprising HIV GP41 peptide coupled to CRM197 carrier protein” ([…], priority 2012, dated 2016)
# “And” between values parts separate entries of the source, which are not always exact repeats. Identical values can stand only once.
# Test system: NKp44L at the surface of activated human CD4+ T cells
# Assay: Inhibition by antiserums of 3S16Nter-induced NKp44L expression at the surface of activated human CD4+ T cells (cytofluorometry)
# Format: cell-based
# Description: The aim of Example 5 was to test the ability of the antiserums of a rat vaccinated with the adjuvanted 3S drug substance to inhibit the expression of NKp44L at the surface of activated human CD4+ T cells induced by the 3S peptide, namely the 3S16Nter peptide.
# CD4+ T cells were sorted from human PBMC and activated for 3 days with PHA (Thermo Fisher Scientific, Waltham, USA) then expanded for three days with recombinant IL-2 (Novartis, Horsham, United Kingdom). The cells were put in presence of 3S16Nter peptides (Covalab, Villeurbanne, France) in order to induce the expression of NKp44L at their surface.
# The expression of NKp44L at the surface of the cells was measured using the intensity of a specific fluorescent staining measured by cytofluorometry.
# The inhibition of NKp44L expression by the antiserums of vaccinated rat was studied.
# The antisera were tested at different dilutions in triplicate.
# Human CD4+ T cells were obtained by magnetic separation from a leuko-platelet residue pouch ordered from the EFS (“Etablissement Francais du Sang”).
# The human CD4+ T cells were sorted from the pouch according to the following protocol: • 1. The pouch is distributed in four Falcon tubes of 50 mL: 4×15 mL • 2. Complete to 50 mL with RPMI1640+glutamax medium (ref 72400-054, GIBCO, Life Technologies, Carlsbad, USA) • 3. […]
substance,measurement,setting,value
H-CPWNASWSNKSLDDIW-OH [3S16Nter],PE X-mean fluorescence,"no serum, with 3S16Nter peptides (5 μg/mL), single wells",59.6 and 64.7
same,NKp44L expression on activated CD4+ T cells (mean level),"without serum, in the presence of 3S16Nter peptides",62
